Data set [1] relates to children and adults with Lennox-Gastaut syndrome (LGS). Put plainly: Same trial: Clinical Global Impression-Improvement (CGI-I) rating by the Principal Investigator. The data set is classed as in vivo, human. The note with it: 0.7 mg/kg/day; placebo 6.3%; p 0.0007. From the text:
The diagnosing can also involve a clinician's impression of symptoms. As used herein, the term “clinician” includes not only medical and psychological professions such as physicians, psychologists, psychiatrists, and nurses, but also non-professionals who observe the patient, such as a family member who resides with the patient. In some cases, the clinician is a medical or psychological professional. […] Instead, the “impression of symptoms” includes, for example, the clinician's subjective assessment of whether the overall condition of the patient has improved, worsened, or remained constant. In some cases the clinician's impression of symptoms is collected using a Clinical Global Impression (CGI) rating scale, which can include the section about severity of illness (CGI-S), global improvement (CGI-I), and efficacy index (CGI-E). […] By comparing the numerical responses over time, an assessment of the effect of the administering can be determined.
Change in seizure frequency was assessed as the drops between baseline and the combined Titration and Maintenance Periods (T+M). Also assessed was the proportion of subjects who achieve a ≥50% reduction from baseline in the frequency of seizures that result in drops. Also assessed was changes in the Clinical Global Impression—Improvement rating, as assessed by the Principal Investigator. […]

Data set [2] concerns children with refractory epilepsy. The following applies: 0.5 to 1 mg/kg/day; cited from earlier work.
Data set [3] concerns self-induced photosensitive seizures. The note with it: four cases; cited from earlier work.
In data set [4] the test system is children and adults with Lennox-Gastaut syndrome (LGS). Put plainly: Same trial: safety (adverse events, ECG, ECHO). Format: in vivo, human.
Data set [5] shares this test system. Put plainly: Randomized, double-blind, placebo-controlled trial of adjunctive fenfluramine oral solution: seizure frequency from caregiver diary. The data set is classed as in vivo, human. The following applies: for median reduction in monthly drop seizures: 2 week titration plus 12 week maintenance, placebo 7.8% (7.6% elsewhere in the source); for reduction from baseline of generalized tonic-clonic (GTC) seizures: placebo negative 3.7%, p less than 0.001; for reduction from baseline of tonic-atonic seizures: placebo 6.8%, p 0.0455; for proportion of subjects with a 25% or more reduction in monthly drop seizures: titration plus maintenance (week 0-14), placebo 31%, p 0.007. As for the experimental part:
A randomized, double-blind, placebo-controlled trial was conducted to assess the effect of administering fenfluramine hydrochloride as an adjunctive therapy as an oral solution to children and adults with Lennox-Gastaut syndrome (LGS). The study assessed the effect of such administration on seizures experienced by the subjects.
The fenfluramine hydrochloride was supplied as an oral solution in concentrations of 1.25, 2.5, and 5 mg/mL. Subjects were randomized to receive 1 of 2 doses of fenfluramine hydrochloride (0.2 mg/kg/day, 0.8 mg/kg/day; maximum dose: 30 mg/day) or placebo. Study medication were administered twice a day (BID) in equally divided doses. (Note that subjects taking concomitant stiripentol [STP] were randomized to 0.5 mg/kg/day, maximum dose 20 mg/day, or equivalent volume of placebo. Subjects randomized to 0.5 mg/kg/day were included in analyses with the subjects randomized to 0.8 mg/kg/day not taking STP.)
Seizures that result in a drop are defined as seizures involving the entire body, trunk, or head that led to a fall, injury, slumping in a chair, or the subject's head hitting a surface or that could have led to a fall or injury, depending on the patient's position at the time of the seizure.
The cohort included 263 randomized subjects from the United States, Canada, Europe, and Australia. 87 were randomized into 0.7 mg/kg/day of fenfluramine hydrochloride, 89 were randomized into 0.2 mg/kg/day of fenfluramine hydrochloride, and 87 were randomized into a placebo.
The administration was conducted for 20 weeks. There was a 4-week baseline, a 2-week titration, a 12-week maintenance, and a 2-week taper or transition period.
The 4-week Baseline Period consisted of the establishment of initial eligibility during a screening visit to include an assessment of cardiac parameters (ECG and ECHO), followed by an observation period where subjects were assessed for baseline seizure frequency based on recordings of daily seizure activity entered into a diary. Upon completion of the Baseline Period, subjects who qualified for the study were randomized (1:1:1) in a double-blind manner to receive 1 of 2 doses of fenfluramine hydrochloride (0.2 mg/kg/day, […]; maximum dose: 30 mg/day [or 0.5 mg/kg/day, maximum 20 mg/day, for subjects taking concomitant STP]) or placebo. Randomization was stratified by weight (<37.5 kilograms [kg], ≥37.5 kg) to ensure balance across treatment arms, and at least 25% of subjects will be in each weight group. All subjects were titrated to their blinded randomized dose over a 2-week Titration Period. Following titration, subjects continued treatment at their randomly assigned dose over a 12-week Maintenance Period. Total treatment time from the beginning of the Titration Period through the end of the Maintenance Period is 14 weeks. Subjects had ECG and ECHO assessments at weeks 6 and 14 during the Maintenance Period. At the end of the Maintenance Period (or early discontinuation), all subjects underwent a blinded 2-week taper or transition period (Post-Dosing Follow-Up) depending on whether they exit the study or are enrolled in Part 2, the long-term open-label extension, respectively.
Change in seizure frequency was assessed as the drops between baseline and the combined Titration and Maintenance Periods (T+M). Also assessed was the proportion of subjects who achieve a ≥50% reduction from baseline in the frequency of seizures that result in drops. Also assessed was changes in the Clinical Global Impression—Improvement rating, as assessed by the Principal Investigator.
Primary Efficacy Analysis: The primary efficacy endpoint for Part 1 is the percent change in frequency of seizures that result in drops (DSF: drop seizure frequency) per 28 days between the T+M and Baseline periods in Cohort A. The DSF will be calculated from all available data collected during the Baseline and treatment periods without imputation. […]

Data set [6] has as its system child suffering pattern sensitivity-induced seizures. The note with it: one child, resistant to anticonvulsive treatment; cited from earlier work.
The next data set deals with LGS patients. The note with it: cited from earlier work; for reduction in seizures associated with drops: 20 mg/kg/day.
Where [7] appears, read: 0.7 mg/kg/day, listed as Fenfluramine.

Where a name gives a salt, the structure may show the parent alone. Read-outs that look alike come from different tables or passages of the source.

Consider `CCNC(C)Cc1cccc(C(F)(F)F)c1` (racemic) [fenfluramine, (RS)—N-ethyl-1-[3-(trifluoromethyl)phenyl]propan-2-amine], for which the “proportion of patients much or very much improved, CGI-I Investigator Rating” value in data set [1] is given as 26.3%. The “effect on number of seizures” value in data set [2] is reported as “reduction in the number of seizures”. For the same molecule, the “response of self-induced photosensitive seizures” value in data set [3] is reported as “responded to treatment”. Moreover, the “subjects with at least one serious treatment emergent adverse event (SAE)” value in data set [4] (0.7 mg/kg/day, placebo 4.6%) was 11.7%. In addition, the tolerability entry in data set [4] (both doses, 14 weeks of treatment) is recorded as “generally well tolerated”. The “cases of valvular heart disease or pulmonary arterial hypertension” value in data set [4] (both doses, ECHO monitoring) was “No cases of valvular heart disease or pulmonary arterial hypertension were observed”. The “median reduction in monthly drop seizures” value in data set [5] (0.2 mg/kg/day, p 0.0915) came out at 14.2%; in data set [5] (0.7 mg/kg/day, p 0.0012) it was 26.5%. The “reduction from baseline of generalized tonic-clonic (GTC) seizures” value in data set [5] (0.2 mg/kg/day) turned out to be 58.2%; in data set [5] (0.2 mg/kg/day, listed as Fenfluramine), 58%; in data set [5] (0.7 mg/kg/day) it was 45.7%; in data set [5] (setting [7]) it was 46%. In addition, in data set [5] (0.7 mg/kg/day, p 0.0013), the “Hodges-Lehmann EMD (estimated median difference) from placebo in frequency of seizures associated with a drop” value is 19.9%. Besides, the “reduction from baseline of tonic-atonic seizures” value in data set [5] (0.7 mg/kg/day) came out at 46.7%; in data set [5] (setting [7]), 47%. Also, the “reduction from baseline of tonic seizures” value in data set [5] (0.7 mg/kg/day, placebo 13.3%, p 0.0601) came out at 31.3%. Besides, the “proportion of subjects with a 25% or more reduction in monthly drop seizures” value in data set [5] (0.7 mg/kg/day) came out at 51.7%. In addition, the “effect on self-induced pattern sensitivity-induced seizures” value in data set [6] is on record as “successfully terminated these self-induced seizures”.
In the case of `O=C(c1cccnc1-c1ccncc1)N1CCC(O)(Cc2ccccc2)CC1` [Soticlestat], the “reduction in drop seizures” value in the data set on LGS patients (Takeda Pharmaceuticals 2020, not statistically significant) is recorded as 14.8%.
In the case of `C=C(C)[C@@H]1CCC(C)=C[C@H]1c1c(O)cc(CCCCC)cc1O` [cannabidiol], the “reduction in seizures associated with drops” value was 21.6% in the data set on LGS patients (Devinksy 2018, p 0.005) and 17.2% with LGS patients (Thiele 2018, p 0.0135).
Turning to `CCNC(C)Cc1cccc(C(F)(F)F)c1` (stereo not shown) [fenfluramine HCl, fenfluramine hydrochloride], the “proportion of patients much or very much improved, CGI-I Investigator Rating” value in data set [1] stood at 26.3%. Besides, the “median reduction in monthly drop seizures” value in data set [5] (0.2 mg/kg/day, p 0.0915) came to 13.2%; in data set [5] (0.7 mg/kg/day, p 0.0012), 26.5%. Also, the “proportion of subjects with a 25% or more reduction in monthly drop seizures” value in data set [5] (0.7 mg/kg/day) amounted to 51.7%.

The record behind these values is patent US20210299064A1, “METHOD OF TREATING PATIENTS WITH LENNOX-GASTAUT SYNDROME” (ZOGENIX INTERNATIONAL LIMITED, priority 2020, published 2021).
